Test results from paper PMC11396667, “Design, Synthesis, and Anticancer and Antibacterial Activities of Quinoline-5-Sulfonamides” (Molecules, 2024).

System: H3, BCL-2, BAX, P21, and P53 genes in C-32, A549, MDA-MB-231, and HFF-1 cells
Experiment: Transcriptional activity by RT-QPCR
Assay type: cell-based, human
Conditions: 36 µM in medium, 24 h
Method: The study investigated the effect of compound 3c on the transcriptional activity of genes encoding a proliferation marker (histone H3), cell cycle regulators (P53 and P21), and genes encoding proteins involved in the mitochondrial apoptosis pathway (BCL-2 and BAX) in C-32, A549, MDA-MB-231, and HFF-1 cells. Cultures were exposed to 3c at a concentration of 36 µM in medium for 24 h.
The transcriptional activity of the following genes was assessed: H3 (a gene encoding histone H3, a proliferation marker), BCL-2 and BAX (genes encoding BCL-2 and BAX proteins, respectively; both are mitochondrial proteins associated with apoptosis), and P21 and P53 (cell cycle regulators). Activity was assessed by RT-QPCR using the CFX96 Touch Real-Time PCR Detection System (BIO-RAD Hercules, CA, USA) and a SensiFAST^TM SYBR^R No-ROX One-Step Kit (Meridian Bioscience, Memphis, TN, USA). Cultured cells were exposed (for 24 h) to the tested compounds (0.5 µg/mL). RNA was extracted using Quick-RNA™ MiniPrep kit columns (Zymo Research, Irvine, CA, USA). The extracted RNA was assessed qualitatively and quantitatively. The integrity of total RNA was checked by electrophoresis (1.2% agarose gel, EtBr), and the amount and purity of total RNA in the extracts was determined spectrophotometrically (HP8452A apparatus, Hewlett Packard, Waldbronn, Germany).

Compound: C#CCN(C)S(=O)(=O)c1ccc(O)c2ncccc12 [3c, 8-Hydroxy-N-methyl-N-(prop-2-yn-1-yl)quinoline-5-sulfonamide]
- BCL-2/BAX ratio (ratio of gene copy numbers): in favor of BAX
- transcriptional activity of P21: increase in the transcriptional activity
- transcriptional activity of P53: increase in the transcriptional activity
- H3 expression (proliferation marker) (all the cultures): reduction in H3 expression
